The values below are quoted from earlier work in US10328118B2, “High purity oritavancin and method of producing same” (priority 2014, dated 2019).

Like-named read-outs stand apart in the source and are kept apart here.

Series [1] has as its system animal models.
Series [2] deals with subjects.

Turning to `CN[C@H](CC(C)C)C(=O)N[C@H]1C(=O)N[C@@H](CC(N)=O)C(=O)N[C@H]2C(=O)N[C@H]3C(=O)N[C@H](C(=O)N[C@H](C(=O)O)c4cc(O)cc(O)c4-c4cc3ccc4O)[C@H](O)c3ccc(c(Cl)c3)Oc3cc2cc(c3O[C@@H]2O[C@H](CO)[C@@H](O)[C@H](O)[C@H]2O[C@H]2C[C@](C)(N)[C@H](O)[C@H](C)O2)Oc2ccc(cc2Cl)[C@H]1O` [vancomycin], in series [1] (animal models), the teratogenicity result is “non-teratogenic”. The ““red man” syndrome (histamine-like response) during infusion” value in series [2] (rapid infusion into subjects) was “associated with the “red man” syndrome”.

For teicoplanin, the teratogenicity entry in series [1] (in vivo) was “non-teratogenic”. The ““red man” syndrome (histamine-like response) during infusion” value in series [2] (in vivo) is “not seen”.
